For test [1], the target named is T1, CAT (catalase from bovine liver) (Bos taurus, UniProt P00432).
T1 construct: native commercial enzyme from bovine liver (Beijing Solarbio); heme homotetramer, 506 residues per subunit
T1 sequence (P00432 2-527): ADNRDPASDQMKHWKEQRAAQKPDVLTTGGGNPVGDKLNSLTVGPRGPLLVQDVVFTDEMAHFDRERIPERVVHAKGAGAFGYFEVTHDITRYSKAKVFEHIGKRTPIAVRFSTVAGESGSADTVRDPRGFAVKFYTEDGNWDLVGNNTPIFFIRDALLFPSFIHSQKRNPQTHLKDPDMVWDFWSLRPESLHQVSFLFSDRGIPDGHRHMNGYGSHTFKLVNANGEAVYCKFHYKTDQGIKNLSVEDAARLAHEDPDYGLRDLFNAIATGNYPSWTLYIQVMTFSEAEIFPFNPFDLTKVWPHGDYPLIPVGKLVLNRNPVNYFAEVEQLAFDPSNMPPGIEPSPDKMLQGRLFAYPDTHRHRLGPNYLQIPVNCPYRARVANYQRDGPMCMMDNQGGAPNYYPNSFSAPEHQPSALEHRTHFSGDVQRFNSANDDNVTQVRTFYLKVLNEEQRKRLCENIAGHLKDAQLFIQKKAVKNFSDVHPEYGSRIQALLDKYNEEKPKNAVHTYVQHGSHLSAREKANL
Nature of the test: isothermal titration calorimetry, one-site model. The test is classed as binding. The note with it: read-out: K (M^-1). The source says: isothermal titration calorimetry, one-site model on CAT (catalase from bovine liver)

Test [2] has as its target T1, CAT (catalase from bovine liver). Nature of the test: H2O2 decomposition, absorbance at […] nm. The test is classed as biochemical.

Broadly, the inhibition is how much of the control response was suppressed. Low readings indicate a response near the control, high ones a response far below the control. Consider `O=C1c2ccccc2C(=O)c2c1cc(S(=O)(=O)O)c(O)c2O` [Alizarin red S], for which the Kd in test [1] is 39.2 µM. The inhibition at 5 µM in test [2] was 23.8%.

The values are drawn from publication PMC9073274, “The toxic effects of alizarin red S on catalase at the molecular level” (RSC Advances, 2019).
